Reference: US20210317134A1, “UBIQUITIN-SPECIFIC-PROCESSING PROTEASE 7 (USP7) MODULATORS AND USES THEREOF” (RAPT THERAPEUTICS, INC., priority 2019, published 2021)
pIC50: −log10 of the molar value.

Target: USP7 (Homo sapiens, UniProt Q93009)
Assay: USP7 inhibitory potency (Table 1)
Assay type: biochemical

Sequence of USP7 (Q93009 whole entry): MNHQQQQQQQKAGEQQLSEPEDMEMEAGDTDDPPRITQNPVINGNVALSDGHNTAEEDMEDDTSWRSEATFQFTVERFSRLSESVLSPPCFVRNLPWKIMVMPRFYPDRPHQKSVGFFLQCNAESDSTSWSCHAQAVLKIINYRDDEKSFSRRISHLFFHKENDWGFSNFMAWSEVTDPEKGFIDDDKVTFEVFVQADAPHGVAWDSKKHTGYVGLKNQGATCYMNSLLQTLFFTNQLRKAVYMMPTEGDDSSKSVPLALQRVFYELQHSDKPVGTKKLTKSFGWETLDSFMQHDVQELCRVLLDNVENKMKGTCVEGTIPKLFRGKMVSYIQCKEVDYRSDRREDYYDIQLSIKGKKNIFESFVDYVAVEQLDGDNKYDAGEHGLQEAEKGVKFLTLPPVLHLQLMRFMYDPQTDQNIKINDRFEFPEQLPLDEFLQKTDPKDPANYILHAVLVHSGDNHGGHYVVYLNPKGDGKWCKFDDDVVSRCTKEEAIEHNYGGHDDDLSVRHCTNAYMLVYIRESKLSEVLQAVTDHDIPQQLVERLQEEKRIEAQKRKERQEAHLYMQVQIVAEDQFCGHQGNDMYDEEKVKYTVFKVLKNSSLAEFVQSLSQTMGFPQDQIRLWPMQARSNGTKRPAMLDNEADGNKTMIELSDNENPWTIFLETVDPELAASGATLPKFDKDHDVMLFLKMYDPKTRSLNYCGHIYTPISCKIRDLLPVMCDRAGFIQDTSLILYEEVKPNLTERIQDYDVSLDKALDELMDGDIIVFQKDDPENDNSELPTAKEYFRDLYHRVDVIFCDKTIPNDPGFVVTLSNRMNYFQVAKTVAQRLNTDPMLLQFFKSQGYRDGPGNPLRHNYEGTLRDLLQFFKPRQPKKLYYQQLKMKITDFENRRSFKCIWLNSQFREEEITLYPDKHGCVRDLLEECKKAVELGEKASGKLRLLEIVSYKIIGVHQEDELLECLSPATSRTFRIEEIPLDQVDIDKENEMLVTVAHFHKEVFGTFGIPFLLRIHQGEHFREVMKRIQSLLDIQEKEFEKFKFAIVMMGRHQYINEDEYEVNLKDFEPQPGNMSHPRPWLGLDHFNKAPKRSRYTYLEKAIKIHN

| pIC50 | Structure (SMILES) |
| --- | --- |
| > 6.00 | Cn1ccc(=O)n(Cc2cc3nccc(-c4cc(Cl)cc5c4O[C@@H](C(=O)N4CCNCC4)C5)c3s2)c1=O [(R)-3-((7-(5-chloro-2-(piperazine-1-carbonyl)-2,3-dihydrobenzofuran-7-yl)thieno[3,2-b]pyridin-2-yl)methyl)-1-methylpyrimidine-2,4(1H,3H)-dione] |
| > 6.00 | CCC(O)c1cc2nccc(-c3cc(Cl)cc4c3O[C@@H](c3onc5c3CN(C)CC5)C4)c2s1 (stereo partly drawn) [drawing 1521, 1-(7-((R)-5-chloro-2-(5-methyl-4,5,6,7-tetrahydroisoxazolo[4,3-c]pyridin-3-yl)-2,3-dihydrobenzofuran-7-yl)thieno[3,2-b]pyridin-2-yl)propan-1-ol] |
| 5.00 to 6.00 | Cc1c(-c2cc(Cl)cc3c2OC(C(=O)N2CCNCC2)C3)ccnc1N (stereo not drawn) [(7-(2-amino-3-methylpyridin-4-yl)-5-chloro-2,3-dihydrobenzofuran-2-yl)(piperazin-1-yl)methanone] |
| 5.00 to 6.00 | NC(=O)c1c[nH]c2nccc(-c3cc(Cl)cc4c3OC(C(=O)N3CCNCC3)C4)c12 (stereo not drawn) [4-(5-chloro-2-(piperazine-1-carbonyl)-2,3-dihydrobenzofuran-7-yl)-1H-pyrrolo[2,3-b]pyridine-3-carboxamide] |
| 5.00 to 6.00 | Cc1cc2c(-c3cc(Cl)cc4c3O[C@@H](c3onc5c3CNCC5)C4)ccnc2cc1C#N [(R)-4-(5-chloro-2-(4,5,6,7-tetrahydroisoxazolo[4,3-c]pyridin-3-yl)-2,3-dihydrobenzofuran-7-yl)-6-methylquinoline-7-carbonitrile] |
| 5.00 to 6.00 | CCC(O)c1cc2ncnc(-c3cc(Cl)cc4c3O[C@@H](c3c5c(nn3C)CCC(N(C)C)C5)C4)c2s1 (stereo partly drawn) [1-(4-((2R)-5-chloro-2-(5-(dimethylamino)-2-methyl-4,5,6,7-tetrahydro-2H-indazol-3-yl)-2,3-dihydrobenzofuran-7-yl)thieno[3,2-d]pyrimidin-6-yl)propan-1-ol] |
| 5.00 to 6.00 | O=C(C1Cc2cc(Cl)cc(-c3ccnc4[nH]ccc34)c2O1)N1CCN(c2cccnc2)CC1 (stereo not drawn) [(5-chloro-7-(1H-pyrrolo[2,3-b]pyridin-4-yl)-2,3-dihydrobenzofuran-2-yl)(4-(pyridin-3-yl)piperazin-1-yl)methanone] |
| 5.00 to 6.00 | OC1(c2cc3nccc(-c4cc(Cl)cc5c4O[C@@H](c4onc6c4CNCC6)C5)c3s2)CNC1 [(R)-3-(7-(5-chloro-2-(4,5,6,7-tetrahydroisoxazolo[4,3-c]pyridin-3-yl)-2,3-dihydrobenzofuran-7-yl)thieno[3,2-b]pyridin-2-yl)azetidin-3-ol] |
| 5.00 to 6.00 | O=C(C1Cc2cc(Cl)cc(-c3ccnc4[nH]ccc34)c2O1)N1CCC(O)(c2ccc(Cl)cc2)CC1 (stereo not drawn) [(5-chloro-7-(1H-pyrrolo[2,3-b]pyridin-4-yl)-2,3-dihydrobenzofuran-2-yl)(4-(4-chlorophenyl)-4-hydroxypiperidin-1-yl)methanone] |
| 5.00 to 6.00 | Cc1c[nH]c2nccc(-c3cc(Cl)cc4c3OC(C(=O)N3CCNCC3)C4)c12 (stereo not drawn) [(5-chloro-7-(3-methyl-1H-pyrrolo[2,3-b]pyridin-4-yl)-2,3-dihydrobenzofuran-2-yl)(piperazin-1-yl)methanone] |
| 5.00 to 6.00 | O=C([C@H]1Cc2cc(Cl)cc(-c3ccnc4cc(CO)sc34)c2O1)N1CCn2c(nnc2C(F)(F)F)C1 [(R)-(5-chloro-7-(2-(hydroxymethyl)thieno[3,2-b]pyridin-7-yl)-2,3-dihydrobenzofuran-2-yl)(3-(trifluoromethyl)-5,6-dihydro-[1,2,4]triazolo[4,3-a]pyrazin-7(8H)-yl)methanone] |
| 4.52 to 5.00 | O=C(C1Cc2cc(Cl)cc(-c3ccnc4cccnc34)c2O1)N1CCNCC1 (stereo not drawn) [(5-chloro-7-(1,5-naphthyridin-4-yl)-2,3-dihydrobenzofuran-2-yl)(piperazin-1-yl)methanone] |
| > 6.00 | O=C([C@H]1Cc2cc(Cl)cc(-c3ccnc4cc(CO)sc34)c2O1)N1CCC(N2CCCC2)CC1 [(R)-(5-chloro-7-(2-(hydroxymethyl)thieno[3,2-b]pyridin-7-yl)-2,3-dihydrobenzofuran-2-yl)(4-(pyrrolidin-1-yl)piperidin-1-yl)methanone] |
| 5.00 to 6.00 | O=C(C1Cc2cc(Cl)cc(-c3ccnc4[nH]ccc34)c2O1)N1CCC(O)(c2ccccn2)CC1 (stereo not drawn) [(5-chloro-7-(1H-pyrrolo[2,3-b]pyridin-4-yl)-2,3-dihydrobenzofuran-2-yl)(4-hydroxy-4-(pyridin-2-yl)piperidin-1-yl)methanone] |
| 5.00 to 6.00 | O=C(C1Cc2cc(Cl)cc(-c3ccnc4[nH]ccc34)c2O1)N1CCN(c2ccncc2)CC1 (stereo not drawn) [(5-chloro-7-(1H-pyrrolo[2,3-b]pyridin-4-yl)-2,3-dihydrobenzofuran-2-yl)(4-(pyridin-4-yl)piperazin-1-yl)methanone] |
| > 6.00 | CN[C@H]1CCCN(C(=O)[C@H]2Cc3cc(Cl)cc(-c4ccnc5ccsc45)c3O2)C1 [((R)-5-chloro-7-(thieno[3,2-b]pyridin-7-yl)-2,3-dihydrobenzofuran-2-yl)((S)-3-(methylamino)piperidin-1-yl)methanone] |
| > 6.00 | NS(=O)(=O)CCc1cc2nccc(-c3cc(Cl)cc4c3O[C@@H](C(=O)N3CCNCC3)C4)c2s1 [(R)-2-(7-(5-chloro-2-(piperazine-1-carbonyl)-2,3-dihydrobenzofuran-7-yl)thieno[3,2-b]pyridin-2-yl)ethane-1-sulfonamide] |
| > 6.00 | CNC1CCN(C(=O)[C@H]2Cc3cc(Cl)cc(-c4ccnc5cc(CO)sc45)c3O2)CC1 [(R)-(5-chloro-7-(2-(hydroxymethyl)thieno[3,2-b]pyridin-7-yl)-2,3-dihydrobenzofuran-2-yl)(4-(methylamino)piperidin-1-yl)methanone] |
| 5.00 to 6.00 | CN(C)Cc1ncoc1[C@H]1Cc2cc(Cl)cc(-c3ncnc4ccsc34)c2O1 [(R)-1-(5-(5-chloro-7-(thieno[3,2-d]pyrimidin-4-yl)-2,3-dihydrobenzofuran-2-yl)oxazol-4-yl)-N,N-dimethylmethanamine] |
| > 6.00 | O=C([C@H]1Cc2cc(Cl)cc(-c3ccnc4cc(CCO)sc34)c2O1)N1CCNCC1 [(R)-(5-chloro-7-(2-(2-hydroxyethyl)thieno[3,2-b]pyridin-7-yl)-2,3-dihydrobenzofuran-2-yl)(piperazin-1-yl)methanone] |
| > 6.00 | CCC(O)c1cc2nccc(-c3cc(Cl)cc4c3O[C@@H](c3nn(C)c5c3CNCC5)C4)c2s1 (stereo partly drawn) [1-(7-((R)-5-chloro-2-(1-methyl-4,5,6,7-tetrahydro-1H-pyrazolo[4,3-c]pyridin-3-yl)-2,3-dihydrobenzofuran-7-yl)thieno[3,2-b]pyridin-2-yl)propan-1-ol] |
| 4.52 to 5.00 | O=C(C1Cc2cc(Cl)cc(-c3ccnc4c(F)cccc34)c2O1)N1CCNCC1 (stereo not drawn) [(5-chloro-7-(8-fluoroquinolin-4-yl)-2,3-dihydrobenzofuran-2-yl)(piperazin-1-yl)methanone] |
| 5.00 to 6.00 | CCCC1(CO)Cc2nccc(-c3cc(Cl)cc4c3O[C@@H](C(=O)N3CCNCC3)C4)c2C1 (stereo partly drawn) [((2R)-5-chloro-7-(6-(hydroxymethyl)-6-propyl-6,7-dihydro-5H-cyclopenta[b]pyridin-4-yl)-2,3-dihydrobenzofuran-2-yl)(piperazin-1-yl)methanone] |
| 5.00 to 6.00 | O=C([C@H]1Cc2cc(Cl)cc(-c3ccnc4ccsc34)c2O1)N1CCC(N2CCCCC2)CC1 [(R)-[1,4′-bipiperidin]-1′-yl(5-chloro-7-(thieno[3,2-b]pyridin-7-yl)-2,3-dihydrobenzofuran-2-yl)methanone] |
